How the values were obtained:
HBV = assay: Inhibition of HBV proliferation in HBV producing cell line HepG 2.2.15 (competitive PCR of culture supernatant); type: cell-based, Hepatitis B virus; settings: HepG 2.2.15, one week; for inhibition at 0.01 µg/mL / inhibition at 0.1 µg/mL / inhibition at 1 µg/mL: Hepatitis B virus, HepG2.2.15, 168 h, read-out: Inhibitory effect on the HBV proliferation, Inhibition activity on HBV-RT (%)
Procedure: The following experiment was performed to determine inhibitory effects of compounds of formula on the proliferation of HBV producing cell line.
To test for antiviral effect, replication and proliferation of HBV were measured in HepG 2.2.15, a human liver cancer cell line.
The cell concentration was adjusted to 1×10^5 cells/ml and 1 ml was added to each well of a 24-well cell culture plate, which was then kept in a culture box for 3-4 days at 37° C. under 5% CO2 until cells grew sufficiently, changing culture medium everyday. When the cells matured sufficiently, the test compounds were added to the final concentrations of 0.01, 0.1, and 1 μg/ml. One week after the addition of test compounds, he culture solution was centrifuged at 5,000 rpm for 10 min. 25 μl of supernatant was transferred to a new tube and 5 μl of lysis solution [0.54N NaOH, 0.06% NP40] was added to each tube. After keeping the tube at 37° C. for 1 hr, 30 μl . of neutralizing solution [0.09NHCl, 0.1MTris-HCl, pH7.4] was added as a reaction solution for competitive polymerase chain reaction (PCR).
PCR was performed using genetic sequence of HBV core protein as a matrix. PCR reaction was carried out by adding 1 unit of Taq polymerase enzyme to 25 pmol of each primer, 250 μM dNTP, 5 μl of PCR reaction solution [0.54N NaOH, 0.06% NP40, 0.09N HCl, 0.1M Tris-HCl, pH 7.4].
DNA polymerized by PCR was electrophoresed on Agarose gel and quantitatively analyzed using an image analyzer (Gel Dcc 1000, Bio-Rad) in order to evaluate the effect of compounds of the present invention on the reduction of HBV proliferation.
3TC (lamivudine) was used as a positive control at the same concentrations as those of the test compounds. The percentage of reduction in HBV proliferation was calculated using the group without test compound as a control and the results are represented in Table 4.

HBV polymerase = target: T1, HBV polymerase (Hepatitis B virus genotype A2 subtype adw2, UniProt P03159); assay: In vitro reverse transcription activity of HBV polymerase (ELISA-type, DIG/biotin nucleotides); type: biochemical; settings: for inhibition at 0.01 µg/mL / inhibition at 0.1 µg/mL / inhibition at 1 µg/mL: read-out: Inhibition activity on HBV-RT (%)
T1 construct: made in house; host or cells: E. coli
Procedure: The following in vitro experiment was performed to determine the effect of the compounds of formula 1 on the activity of HBV polymerase during reverse transcription.
The present inventors submitted application for a patent concerning HBV polymerase genetically expressed in and separated from E. coli, the process of its preparation, and the method to measure the enzyme activities (KR 94-3918, KR 96-33998). In the present experiments HBV polymerase was used which had been expressed in E. coli as stated above.
The method used in the present invention to measure in vitro reverse transcribing activities of HBV polymerase is as follows. Basic principles are the same as for ELISA. Nucleotides with biotin or digoxigenin group attached are included as substrates and anti-DIG antibodies attached to peroxidase enzyme recognize the polymerized substrates.
To the wells coated with streptavidin, 20 μl of HBV polymerase, 20 μl of reaction mixture (10 μM each of DIG-UTP and Biotin-UTP, 46 mM Tris-HCl, 266 mM KCl, 27.5 mM MgCl2, 9.2 mM DTT substrate/primer hybrid), and 20 μl of test compound (added to 1, 0.1, and 0.01 μg/ml) were added and allowed to react a 22° C. for 15 hrs. During this reaction, HBV polymerase catalyzes DNA synthesis and digoxigenin and biotin attached to nucleotides form bonds with streptavidin coated on the bottom of wells. When the reaction was done, each well was washed with 250μl of cleaning buffer (pH 7.0) for 30 seconds, which was repeated five times to remove remaining impurities. 200 μl of anti-DIG-POD antibody was added to each well and allowed to react for 1 hr at 37° C., and the wells were washed with cleaning buffer to remove impurities. 200μl each of ABTS™, a substrate of peroxidase, was then added and allowed to react at room temperature for 30 min. Absorbance was measured at 405 nm using ELISA reader.
The percentage of reduction in HBV polymerase activities for reverse transcription was calculated using the group without test compound as a control and the results are shown in Table 3.

[1] = target: T2, HIV reverse transcriptase (Human immunodeficiency virus type 1 group M subtype B, UniProt P04585); assay: In vitro HIV reverse transcriptase activity (non-radioactive reverse transcriptase assay kit); type: biochemical
T2 construct: activities of HIV reverse transcriptase; purchased Boehringer Mannheim
Procedure: The following in vitro experiments were done to determine the effect of compounds of formula 1 on the reduction of HIV enzyme activities in reverse transcription.
Non-radioactive reverse transcriptase assay kit (Boehringer Mannheim) was used in the measurement of in vitro transcriptase activities. 20 μl (40 ng) of HIV transcriptase and 20 μl of reaction mixture containing matrix-primer hybrid poly (A) oligo (dT) 15, DIG(digoxigenin)-dUTP, biotin-dUTP, and TTP were added to wells coated with streptavidin. Test compounds were also added at the final concentrations of 0.1 and 1 μg/ml and allowed to react at 37° C. for 1 hr. At this time, DNA is formed from RNA by the action of HIV transcriptase, forming bonds with streptavidin coated on the bottom of wells because of digoxigenin and biotin moieties attached to nucleotides.
When the reaction was completed, each well was washed with 250 μl. of cleaning buffer (pH 7.0) for 30 sec. five times to remove remaining impurities. 200 μl of anti-DIG-POD […] was added to each well, allowed to react at 37° C. for 1 hr and washed as above to remove impurities. 200 μl of ABTS™, a substrate for peroxidase, was added to each well and allowed to react at room temperature for 30min. Absorbance at 405 nm was then read for each solution using ELISA reader and used for quantitative determination of inhibitory effect on the HIV transcriptase activities. The percentage of reduction in the activities of HIV reverse transcriptase was calculated using the group without test compound as control and the results are represented in Table 5.

T1 sequence (P03159 whole entry): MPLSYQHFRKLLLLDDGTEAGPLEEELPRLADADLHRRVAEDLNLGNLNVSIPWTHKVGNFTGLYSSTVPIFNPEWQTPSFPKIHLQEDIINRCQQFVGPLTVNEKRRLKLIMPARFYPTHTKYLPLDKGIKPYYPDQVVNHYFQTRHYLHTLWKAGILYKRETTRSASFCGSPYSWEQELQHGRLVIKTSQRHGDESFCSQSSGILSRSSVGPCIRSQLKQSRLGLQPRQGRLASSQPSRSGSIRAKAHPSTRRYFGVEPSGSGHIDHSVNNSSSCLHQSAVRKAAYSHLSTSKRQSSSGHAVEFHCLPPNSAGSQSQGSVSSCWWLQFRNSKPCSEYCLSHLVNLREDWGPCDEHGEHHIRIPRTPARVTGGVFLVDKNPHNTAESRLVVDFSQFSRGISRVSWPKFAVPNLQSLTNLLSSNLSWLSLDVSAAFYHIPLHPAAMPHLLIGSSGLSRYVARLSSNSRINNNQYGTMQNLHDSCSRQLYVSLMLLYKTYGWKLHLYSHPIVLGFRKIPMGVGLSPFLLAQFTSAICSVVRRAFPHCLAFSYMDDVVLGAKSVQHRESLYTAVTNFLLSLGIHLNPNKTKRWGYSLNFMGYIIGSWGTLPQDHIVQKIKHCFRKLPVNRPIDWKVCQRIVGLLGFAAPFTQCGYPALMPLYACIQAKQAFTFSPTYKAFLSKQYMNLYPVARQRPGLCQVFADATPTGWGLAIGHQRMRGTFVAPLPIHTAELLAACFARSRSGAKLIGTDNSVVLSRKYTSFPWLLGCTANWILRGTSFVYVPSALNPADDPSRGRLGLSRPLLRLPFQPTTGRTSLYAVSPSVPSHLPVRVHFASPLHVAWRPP

Row | Compound | inhibition at 0.01 µg/mL (HBV; 0.01 μg/ml) | inhibition at 0.1 µg/mL (HBV; 0.1 μg/ml) | inhibition at 1 µg/mL (HBV; 1 μg/ml) | inhibition at 0.01 µg/mL (HBV polymerase; 0.01 μg/ml test compound) | inhibition at 0.1 µg/mL (HBV polymerase; 0.1 μg/ml test compound) | inhibition at 1 µg/mL (HBV polymerase; 1 μg/ml test compound) | Inhibitory effect on the activities of HIV reverse transcriptase, Inhibition activity on HBV-RT (%) ([1]; 0.1 μg/ml test compound) | also measured
1 | Nc1ccn([C@@H]2CS[C@H](CO)O2)c(=O)n1 [Example 3TC, lamivudine, reference compound] | 48% | 80% | 99% |  |  |  |  | 
2 | CSc1ncc(C(=O)N2CCN(CCO)CC2)c(Nc2ccc3[nH]ncc3c2)n1 [Example 33, 5-[[4-(2-hydroxyethyl)-1-piperazinyl]carbonyl]-4-(1H-5-indazolylamino)-2-methylthiopyrimidine] |  |  |  | 11% | 32% | 53% |  | melting point: 166 to 170 °C
3 | CC[C@H](CO)NC(=O)c1cnc(SC)nc1Nc1ccc2[nH]ncc2c1 [Example 11] |  |  |  |  |  |  |  | Inhibition activity on HBV-RT (%) (HBV polymerase; 0.01 μg/ml test compound): 44%; Inhibition activity on HBV-RT (%) (HBV polymerase; 0.1 μg/ml test compound): 59%; Inhibition activity on HBV-RT (%) (HBV polymerase; 1 μg/ml test compound): 82%
4 | CSc1ncc(C(=O)NCCO)c(Nc2ccc3[nH]ncc3c2)n1 [Example 7, N-(2-Hydroxyethyl)-4-(1H-5-indazolylamino)-2-methylthio-5-pyrimidinecarboxamide] | 21% | 61% | 92% | 48% | 76% | 93% |  | 
5 | CSc1ncc(C(=O)NC2CC2)c(Nc2ccc3cn[nH]c3c2)n1 [Example 6, N-cyclopropyl-4-(1H-6-Indazolylamino)-2-methylthio-5-pyrimidinecarboxamide] |  |  |  | 24% | 43% | 74% | 54% | Inhibition of HIV reverse transcriptase activity ([1]; 1 μg/ml test compound): 78%
6 | CSc1ncc(C(=O)N(C)CCO)c(Nc2ccc3cn[nH]c3c2)n1 [Example 10, N-hydroxyethyl-N-methyl-4-(1H-6-indazolylamino)-2-methylthio-5-pyrimidinecarboxamide] |  |  |  | 22% | 48% | 70% | 47% | Inhibition of HIV reverse transcriptase activity ([1]; 1 μg/ml test compound): 80%
7 | CSc1ncc(C(N)=O)c(Nc2ccc3[nH]ncc3c2)n1 [Example 1, 4-(1H-5-Indazolylamino)-2-methyl thio-5-pyrimidinecarboxamide] |  |  |  |  |  |  | 44% | Inhibitory effect on the activities of HIV reverse transcriptase, Inhibition activity on HBV-RT (%) ([1]; 1 μg/ml test compound): 65%; Inhibition activity on HBV-RT (%) (HBV polymerase; 0.01 μg/ml test compound): 40%; Inhibition activity on HBV-RT (%) (HBV polymerase; 0.1 μg/ml test compound): 63%; Inhibition activity on HBV-RT (%) (HBV polymerase; 1 μg/ml test compound): 90%; Inhibitory effect on the HBV proliferation, Inhibition activity on HBV-RT (%) (HBV; 0.01 μg/ml): 25%; Inhibitory effect on the HBV proliferation, Inhibition activity on HBV-RT (%) (HBV; 0.1 μg/ml): 53%; Inhibitory effect on the HBV proliferation, Inhibition activity on HBV-RT (%) (HBV; 1 μg/ml): 82%
8 | CSc1ncc(C(=O)NN2CCOCC2)c(Nc2ccc3[nH]ncc3c2)n1 [Example 35, 4-(1H-5-indazolylamino)-2-methylthio-N-(4-morpholinyl)-5-pyrimidinecarboxamide] | 29% | 50% | 86% | 46% | 61% | 90% |  | 
9 | CSc1ncc(C(=O)N(C)CCO)c(Nc2ccc3[nH]ncc3c2)n1 [Example 9, N-hydroxyethyl-N-methyl-4-(1H-5-indazolylamino)-2-methylthio-5-pyrimidine Carboxamide] | 20% | 48% | 65% | 30% | 54% | 75% | 52% | Inhibition of HIV reverse transcriptase activity ([1]; 1 μg/ml test compound): 84%
10 | CSc1ncc(C(=O)NCCN2CCOCC2)c(Nc2ccc3cn[nH]c3c2)n1 [Example 20] |  |  |  |  |  |  | 50% | Inhibitory effect on the activities of HIV reverse transcriptase, Inhibition activity on HBV-RT (%) ([1]; 1 μg/ml test compound): 89%; Inhibition activity on HBV-RT (%) (HBV polymerase; 0.01 μg/ml test compound): 12%; Inhibition activity on HBV-RT (%) (HBV polymerase; 0.1 μg/ml test compound): 40%; Inhibition activity on HBV-RT (%) (HBV polymerase; 1 μg/ml test compound): 67%
11 | CSc1ncc(C(=O)NN2CCOCC2)c(Nc2ccc3[nH]ncc3c2)n1 (hydrate or solvate) [Example 35, 4-(1H-5-indazolylamino)-2-methylthio-N-(4-morpholinyl)-5-pyrimidinecarboxamide] |  |  |  |  |  |  |  | melting point: 239 to 242 °C
12 | COCCNC(=O)c1cnc(SC)nc1Nc1ccc2[nH]ncc2c1 [Example 13, 4-(1H-5-indazolylamino)-N-(2-methoxyethyl)-2-methylthio-5-pyrimidinecarboxamide] |  |  |  | 13% | 40% | 58% |  | 
13 | CSc1ncc(C(N)=O)c(Nc2ccc3cn[nH]c3c2)n1 [Example 2, 4-(1H-6-Indazolylamino)-2-methylthio-5-pyrimidinecarboxamide] | 20% | 40% | 70% | 36% | 55% | 85% |  | 
14 | CCNC(=O)c1cnc(SC)nc1Nc1ccc2[nH]ncc2c1 [Example 5, N-ethyl-4-(1H-5-Indazolylamino)-2-methylthio-5-pyrimidinecarboxamide] |  |  |  | 20% | 52% | 70% | 57% | Inhibition of HIV reverse transcriptase activity ([1]; 1 μg/ml test compound): 80%
15 | CC[C@H](CO)NC(=O)c1cnc(SC)nc1Nc1ccc2cn[nH]c2c1 [Example 12, N-[(1R)-1-(hydroxymethyl)propyl]-4-(1H-6-indazolylamino)-2-methylthio-5-pyrimidinecarboxamide] |  |  |  | 36% | 55% | 85% |  | 
